In publication PMC4234457, “Primary porcine proximal tubular cells as an alternative to human primary renal cells in vitro: an initial characterization” (BMC Cell Biology, 2013):
Counter-ions that a name gives are not always drawn. Like-named read-outs stand apart in the source and are kept apart here.

Legend:
[1] = tested on: Oat1 or Oat3; experiment: Transporter induction experiments (RT-PCR of transporter mRNA in PKC); assay type: cell-based, porcine
Description: For transporter induction experiments, freshly isolated PKC cells were seeded (total of 2 × 10^4 cells cm^-2) on 6-well ThinCert PET tissue culture inserts in standard culture medium and medium was changed every 48 hours. […] After 48 hours of exposure, samples for RNA extraction were prepared by standard trypsin-EDTA treatment followed by washing with PBS. Resulting cell pellets were snap-frozen and stored at -80°C until use.
Total RNA was prepared from cell pellets and minced pieces of tissue (rat kidney and porcine kidney cortex) via the phenol-chloroform method using Trizol (Invitrogen, Karlsruhe, Germany). Concentration and quality was estimated via 260/280 nm values. Representative samples were tested for RNA integrity via denaturing electrophoresis. cDNA was prepared using 1 μg total RNA, Oligo (dT)18 and M-MuLV reverse transcriptase according to manufacturer’s instructions. PCR was performed using 2 μl cDNA sample, 2 × PCR Master Mix, specific primers (Table 3). Amplification was performed with an initial denaturation step at 92°C for 3 min followed by 30 cycles of 94°C for 60 sec, 58°C for 60 sec and 72°C for 60 sec and a final extension step at 72°C for 7 min.

[2] = tested on: pOat3; settings: cited from earlier work; for Inhibitory effect on pOat3-mediated ES transport: oocytes
[3] = tested on: primary human proximal tubular cells; parameters: method as in PMID 16997449; settings: cited from earlier work
[4] = tested on: OAT3 (SLC22A8); parameters: method as in supplement 1; settings: Rat, cited from earlier work
[5] = tested on: PKC; experiment: Transport assays (kinetics): cellular uptake of radiolabelled PAH and MTX across BBM and BLM of PKC on filter inserts; assay type: in vitro ADME, porcine; settings: for Km: confluent PKC, 30 min incubation, mean ± SEM, n = 3
Description: For transport studies, tightness of the cellular monolayers was inspected microscopically before use. Additionally, radiolabelled substrates were measured in the both chambers (above and below the cell layer) to determine cell layer leakiness. In case of lacking or reduced tightness of the monolayer, very high counts (dpm) were measured in the respective opposite compartment. These resulting counts (dpm) were several-magnitudes greater than those that could have been expected from potential transepithelial transport. Data from cell preparations with such apparent cell layer leakiness were omitted from calculation.
For kinetic data, raw transport data (dpm) were submitted to intra-assay normalization using the blanks described above and calculated using the following equation:
meandpm×totalvolume/countedvolume×60sec×specificactivity×proteincontent×assaytime=substratepmol/mg×min

[6] = tested on: pOat1; settings: cited from earlier work; for Inhibition of pOat1-mediated PAH uptake: oocytes
[7] = tested on: hOAT3; settings: cited from earlier work
[8] = tested on: primary porcine kidney cells (PKC); experiment: MTT reduction cytotoxicity assay in PKC; settings: for EC50: read-out: EC50 (cytotoxicity), 1-500 μM, positive control
Description: Cytotoxicity experiments using the MTT reduction assay as previously described, were conducted to estimate non-toxic concentrations for subsequent analyses. All chemicals and stock solutions (Tables 1 and 2) were sterilized by filtration (0.2 μm) prior to testing. […] Absorbance was read at 550 nm using a microplate reader (Infinite M200, Tecan, Crailsheim, Germany).
Conversely, in the transport induction experiments (prolonged substrate exposure/low concentrations, Table 2) cytotoxicity was determined after 24, 48, 72 and 96 hours of exposure. All assays were performed with the respective vehicle controls (Tables 1 and 2) and cadmium chloride as positive control.
Cytotoxicity data were calculated as means ± SEM from at least three independent replicate experiments conducted in technical duplicates, followed by a One-way ANOVA with a subsequent Dunnett’s multiple comparison test (P < 0.05).

[9] = tested on: PKC; experiment: Inhibition of cellular PAH uptake in PKC; settings: 50 μM PAH, inhibitor 1 mM, 10 min; for Reduction of PAH BBM uptake: Figure 3A
Description: For transport studies, PKC were seeded (1 × 10^5 cells/cm^2) on 6-well PET filter inserts with 0.4 μm pore size. The use of filter inserts allows measurement of transport across the BLM (basolateral membrane) and the BBM (brushborder membrane) by addition of substrates to media in the lower and upper compartment, respectively. […] The cells were incubated at 37°C for the indicated times. […] Thereafter, cells were acidified with 1 M HCl and an aliquot was used for protein determination using the Bradford assay. 1 ml of medium from each compartment and of solubilized cells was placed into 10 ml scintillation cocktail and radioactivity was measured in a Beckman LS 6500 scintillation counter.

[10] = tested on: hOAT1; settings: hOAT1, MTX; cited from earlier work
[11] = tested on: hMRP4; settings: hMRP4, MTX; cited from earlier work
[12] = tested on: hOAT4; settings: hOAT4, MTX; cited from earlier work
[13] = PKC, 50 nM or 1 μM to basolateral compartment, 48 hours, RT-PCR

C[C@]12CC[C@H](OS(=O)(=O)O)CC1=CC[C@@H]1[C@@H]2CC[C@]2(C)C(=O)CC[C@@H]12 [dehydroepi-androsteron sulfate]
Stimulatory effect on transporter mRNA expression [1, 13]: none of the tested substances showed any stimulatory effect | Inhibitory effect on pOat3-mediated ES transport [2]: inhibitory effect

Nc1ccc(C(=O)NCC(=O)O)cc1 [p-aminohippuric acid]
Km ([3]; primary human proximal tubular cells, read-out: BBM Km of PAH uptake): 36.6 ± 1.2 µM | Km ([3]; primary human proximal tubular cells, read-out: BLM Km of PAH uptake): 57.5 ± 4.1 µM | Km ([4]; ref supplement 1, read-out: KM (PAH)): 60 to 65 µM | Time to saturation of PAH uptake ([5]; PKC, 50 μM substrate, Figure 2B): 5 to 10 min | BBM uptake compared to BLM uptake ([5]; PKC, PAH uptake, Figure 2A): about 3 times | Km ([5]; basolateral membrane, read-out: Km of PAH uptake across BLM): 187 ± 70.2 µM | Km ([5]; brushborder membrane, read-out: Km of PAH uptake across BBM): 58.8 ± 12.6 µM | Km ([6]; OAT1 (SLC22A6), Pig, ref supplement 1, 2, read-out: KM (PAH)): 3.7 µM | Affinity of the other pOat1 variant ([6]; one pOat1 splice variant expressed in Xenopus laevis oocytes): did not show any affinity | Km ([6]; pOat1 variant expressed in Xenopus laevis oocytes, read-out: apparent Km): 3.75 ± 1.6 µM | Km ([7]; OAT3 (SLC22A8), Human, ref supplement 1, read-out: KM (PAH)): 50 to 100 µM

N[C@@H](Cc1cc(I)c(Oc2ccc(O)c(I)c2)c(I)c1)C(=O)O [triiodothyronine]
Stimulatory effect on transporter mRNA expression [1, 13]: none of the tested substances showed any stimulatory effect

C[C@H](CCC(=O)NCCS(=O)(=O)O)[C@H]1CC[C@H]2[C@@H]3[C@H](O)C[C@@H]4C[C@H](O)CC[C@]4(C)[C@H]3C[C@H](O)[C@]12C [taurocholic acid]
Stimulatory effect on transporter mRNA expression [1]: none of the tested substances showed any stimulatory effect | Significant effects (cytotoxicity of potential transporter inducers) [8]: no

CCCN(CCC)S(=O)(=O)c1ccc(C(=O)O)cc1 [probenecid]
Inhibition of PAH uptake from either direction (BBM or BLM) [9]: did not show any inhibitory effect | Inhibitory effect on pOat3-mediated ES transport [2]: inhibitory effect | Inhibition of pOat1-mediated PAH uptake ([6]; 1 mM): could be inhibited

O=C(O)CCCC(=O)O [glutarate]
Inhibitory effect on pOat3-mediated ES transport [2]: inhibitory effect | Inhibition of pOat1-mediated PAH uptake ([6]; 0.5 mM): could be inhibited

CN(Cc1cnc2nc(N)nc(N)c2n1)c1ccc(C(=O)N[C@@H](CCC(=O)O)C(=O)O)cc1 [methotrexate]
Km ([3]; human kidney cells (HKC), hOAT1-associated, read-out: Km of MTX transport across the BBM): 80.4 ± 3.4 µM | Km ([3]; human kidney cells (HKC), hOAT1-associated, read-out: Km of MTX transport across the BLM): 28.5 ± 1.1 µM | Km [10]: 554 to 724 µM | Km [11]: 220 to 1300 µM | Reduction of PAH BBM uptake [9]: up to 30% | Km [12]: 17.8 µM | Cellular uptake ([5]; PKC, radiolabelled substrate): negligible | Km ([7]; hOAT3, MTX, read-out: Km): 10.9 to 21.1 µM

[Cl][Cd][Cl] [cadmium chloride]
Cytotoxicity on longer exposure ([8]; PKC, MTT, exposure >48 hours (data not shown)): did not result in further increased cytotoxicity | EC50 ([8]; PKC, MTT, 24 hours of exposure): 103 µM | EC50 ([8]; PKC, MTT, 48 hours of exposure): 57.2 µM

C[C@@H]1Cc2c(Cl)cc(C(=O)N[C@@H](Cc3ccccc3)C(=O)O)c(O)c2C(=O)O1 [ochratoxin A]
Reduction of PAH BBM uptake [9]: up to 30%

C[C@]12CC[C@@H]3c4ccc(OS(=O)(=O)O)cc4CC[C@H]3[C@@H]1CCC2=O [estrone sulfate]
Inhibition of PAH uptake from either direction (BBM or BLM) [9]: not able to inhibit PAH uptake | Km ([4]; ref supplement 1, read-out: KM (ES)): 2.3 to 5.3 µM | Km ([2]; pOat3 expressed in X. laevis oocytes, read-out: apparent Km): 7.8 ± 1.3 µM | Km ([7]; hOAT3, ES, read-out: Km): 3.1 to 9.5 µM

O=C1OC(c2ccc(O)c(S(=O)(=O)O)c2)(c2ccc(O)c(S(=O)(=O)O)c2)c2c(Br)c(Br)c(Br)c(Br)c21 [bromosulphophthalein]
Reduction of PAH BBM uptake [9]: up to 30% | Stimulatory effect on transporter mRNA expression [1, 13]: none of the tested substances showed any stimulatory effect
